Laboratory results: the supplement of paper PMC10307832

Key:
Assay in all cases: relative viability (nuclei count vs DMSO), 5 days (fraction); higher = more cells survive
Shikonin + Lapatinib = compound: CC(C)=CC[C@@H](O)C1=CC(=O)c2c(O)ccc(O)c2C1=O [Shikonin] + CS(=O)(=O)CCNCc1ccc(-c2ccc3ncnc(Nc4ccc(OCc5cccc(F)c5)c(Cl)c4)c3c2)o1 [Lapatinib] (partner 2 µM)
Summary of the method: (§1)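 Relative viability was taken as the ratio of nuclei in treated wells to nuclei in vehicle wells. Lung cancer cell lines in 1536-well plates received compounds by pin tool one day after seeding, either one drug alone or a fixed anchor-drug dose plus five library-drug doses (not always all listed) in √10 steps. Nuclei were counted on 4× images after 5 days of treatment, and values are medians of duplicate plates.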

[1] = compound: CC(C)N(CCCNC(=O)Nc1ccc(C(C)(C)C)cc1)C[C@H]1O[C@@H](n2ccc3c(N)ncnc32)[C@H](O)[C@@H]1O + Cc1cc(Nc2cc(N3CCN(C)CC3)nc(Sc3ccc(NC(=O)C4CC4)cc3)n2)n[nH]1 [Tozasertib] (partner 0.1 µM)
Summary of the method: as §1

[2] = compound: CC(C)N(CCCNC(=O)Nc1ccc(C(C)(C)C)cc1)C[C@H]1O[C@@H](n2ccc3c(N)ncnc32)[C@H](O)[C@@H]1O + Cc1nc(NC(=O)N2CCC[C@H]2C(N)=O)sc1-c1ccnc(C(C)(C)C(F)(F)F)c1 [Alpelisib] (partner 2 µM)
Summary of the method: as §1

[3] = compound: CC(C)N(CCCNC(=O)Nc1ccc(C(C)(C)C)cc1)C[C@H]1O[C@@H](n2ccc3c(N)ncnc32)[C@H](O)[C@@H]1O + O=C(c1cc(Cc2n[nH]c(=O)c3ccccc23)ccc1F)N1CCN(C(=O)C2CC2)CC1 [Olaparib] (partner 8 µM)
Summary of the method: as §1

Cell Line | relative viability (Shikonin + Lapatinib; first compound 0.01 µM) | relative viability (Shikonin + Lapatinib; first compound 0.1 µM) | relative viability (Shikonin + Lapatinib; first compound 0.3162 µM) | relative viability (Shikonin + Lapatinib; first compound 1 µM) | relative viability ([1]; first compound 0.08 µM) | relative viability ([1]; first compound 0.253 µM) | relative viability ([1]; first compound 0.8 µM) | relative viability ([1]; first compound 2.53 µM) | relative viability ([1]; first compound 8 µM) | relative viability ([2]; first compound 0.08 µM) | relative viability ([2]; first compound 0.253 µM) | relative viability ([2]; first compound 0.8 µM) | relative viability ([2]; first compound 2.53 µM) | relative viability ([2]; first compound 8 µM) | relative viability ([3]; first compound 0.08 µM) | relative viability ([3]; first compound 0.253 µM) | relative viability ([3]; first compound 0.8 µM) | relative viability ([3]; first compound 2.53 µM) | relative viability ([3]; first compound 8 µM)
NCI-H1734 | 1.17 | 1.25 | 1.02 | 1.09 | 0.265 | 0.249 | 0.277 | 0.246 | 0.258 | 0.665 | 0.665 | 0.636 | 0.723 | 0.713 | 0.574 | 0.608 | 0.539 | 0.662 | 0.529
NCI-H1755 | 1.13 | 1.27 | 1.12 | 1.09 | 0.637 | 0.564 | 0.464 | 0.573 | 0.54 | 0.891 | 0.929 | 0.905 | 0.882 | 0.84 | 0.892 | 0.902 | 0.861 | 0.828 | 0.793
NCI-H1793 | 0.637 | 0.786 | 0.742 | 0.648 | 0.345 | – | 0.356 | 0.33 | 0.386 | 0.554 | – | 0.715 | 0.527 | 0.669 | 0.808 | – | 0.864 | 0.848 | 0.739
NCI-H1915 | 1.01 | 1.18 | 1 | 1.09 | 0.443 | 0.401 | 0.434 | 0.388 | 0.426 | 1.07 | 1.05 | 0.974 | 1.05 | 0.968 | 0.244 | 0.288 | 0.229 | 0.236 | 0.23
NCI-H1944 | 0.89 | 0.894 | 0.789 | 0.933 | 0.253 | 0.261 | 0.251 | 0.239 | 0.246 | 0.769 | 0.806 | 0.774 | 0.852 | 0.82 | 0.416 | 0.409 | 0.413 | 0.41 | 0.403
NCI-H1975 | 0.871 | 1.17 | 0.859 | 0.896 | 0.696 | 0.765 | 0.741 | 0.597 | 0.569 | 0.555 | 0.529 | 0.586 | 0.611 | 0.567 | 0.745 | 0.82 | 0.68 | 0.649 | 0.538
NCI-H1993 | – | 0.806 | 0.711 | 0.921 | 0.564 | – | – | 0.624 | 0.591 | 0.696 | 0.786 | 0.619 | 0.675 | 0.751 | 1.06 | – | 1.07 | 1.01 | 1.01
NCI-H2009 | 1.02 | 0.894 | 0.923 | 0.498 | 0.765 | 0.727 | 0.798 | 0.695 | 0.713 | 1.19 | 1.15 | 1.22 | 1.22 | 1.18 | 0.723 | 0.643 | 0.644 | 0.629 | 0.64
NCI-H2023 | 0.806 | 1.14 | 1.02 | 0.867 | 0.437 | 0.38 | 0.345 | 0.375 | 0.338 | 0.532 | 0.619 | 0.619 | 0.68 | 0.622 | 0.491 | 0.458 | 0.458 | 0.446 | 0.43
NCI-H2085 | 0.767 | 0.727 | 0.718 | 0.774 | 0.746 | 0.78 | 0.797 | 0.854 | 0.716 | 0.969 | 0.978 | 1.05 | 0.972 | 0.913 | 0.749 | 0.834 | 0.873 | 0.867 | 0.763
NCI-H2087 | 1.03 | 1.38 | 1.15 | 0.954 | 0.243 | 0.252 | 0.243 | 0.259 | 0.207 | 1.04 | 1.21 | 1.14 | 1.24 | 1.11 | 0.599 | 0.694 | 0.553 | 0.667 | 0.581
NCI-H2126 | 0.779 | 0.795 | 0.81 | 0.824 | 0.844 | 0.834 | 0.812 | 0.843 | 0.786 | 0.734 | 0.712 | 0.78 | 0.783 | 0.722 | 0.873 | 0.932 | 0.901 | 0.883 | 0.778
NCI-H2170 | 0.257 | 0.271 | 0.276 | 0.266 | 0.723 | 0.72 | 0.645 | 0.709 | 0.74 | 0.736 | 0.762 | 0.82 | 0.815 | 0.908 | 0.59 | 0.573 | 0.619 | 0.601 | 0.539
NCI-H2228 | 0.913 | 0.902 | 0.921 | 0.83 | 0.261 | 0.314 | 0.264 | 0.277 | 0.23 | 0.782 | – | 0.796 | 0.76 | 0.745 | 0.879 | 0.712 | 0.427 | 0.601 | 0.615
NCI-H2347 | 0.981 | 1.01 | 1.08 | 0.913 | 0.51 | 0.492 | 0.48 | 0.539 | 0.654 | 0.882 | 0.904 | 0.935 | 1.1 | 1 | 0.525 | 0.593 | 0.534 | 0.655 | 0.548
NCI-H2405 | 1.13 | 1.28 | 1.11 | 1.16 | 0.706 | 0.82 | 0.783 | 0.822 | 0.703 | 0.858 | – | 0.789 | 0.89 | 0.795 | 0.854 | 0.906 | 0.755 | 0.961 | 0.842
NCI-H3122 | 0.973 | 1.13 | 1 | 1.04 | 0.477 | 0.489 | 0.382 | 0.383 | 0.353 | 0.808 | 0.846 | 0.797 | 0.858 | 0.701 | 0.684 | 0.632 | 0.536 | 0.663 | 0.512
